Results as given in US20240246977A1, “DEGRADATION OF BRUTON'S TYROSINE KINASE (BTK) BY CONJUGATION OF BTK INHIBITORS WITH E3 LIGASE LIGAND AND METHOD OF USE” (BeiGene Switzerland GmbH, priority 2021, published 2024).
Where two headings read alike, the source gives them in different places.

What was measured:
HEK-293 cells = experiment: HEK-293 cytotoxicity detection (CellTiter-Glo); type: cell-based; details: 72 h incubation, CellTiter-Glo luminescence, read-out: HEK293
Summary of the method: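 HEK-293 cells exposed 72 h to 8 compounds doses (4-fold dilutions, top stock 5 mM at 500×) in 0.2% DMSO. Viability by CellTiter-Glo luminescence; inhibition normalised to DMSO high control and low control, IC50 from four-parameter curve fit.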

BTK = BTK (Homo sapiens, UniProt Q06187); experiment: BTK cell degradation in TMD-8 cells, HTRF assay; type: cell-based; design: endogenous in cells; host or cells: TMD-8 cells; details: 6 h treatment, IC50 (DC50) of BTK degradation
Summary of the method: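 TMD-8 cells treated 6 h with 8-dose series (6-fold dilutions, 0.2% DMSO final), then lysed and BTK quantified by HTRF (337/665/620 nm) after overnight antibody incubation at room temperature. Degradation normalized to DMSO high and low controls; DC50 and Dmax from four-parameter fit.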

Chain of BTK (Q06187 whole entry): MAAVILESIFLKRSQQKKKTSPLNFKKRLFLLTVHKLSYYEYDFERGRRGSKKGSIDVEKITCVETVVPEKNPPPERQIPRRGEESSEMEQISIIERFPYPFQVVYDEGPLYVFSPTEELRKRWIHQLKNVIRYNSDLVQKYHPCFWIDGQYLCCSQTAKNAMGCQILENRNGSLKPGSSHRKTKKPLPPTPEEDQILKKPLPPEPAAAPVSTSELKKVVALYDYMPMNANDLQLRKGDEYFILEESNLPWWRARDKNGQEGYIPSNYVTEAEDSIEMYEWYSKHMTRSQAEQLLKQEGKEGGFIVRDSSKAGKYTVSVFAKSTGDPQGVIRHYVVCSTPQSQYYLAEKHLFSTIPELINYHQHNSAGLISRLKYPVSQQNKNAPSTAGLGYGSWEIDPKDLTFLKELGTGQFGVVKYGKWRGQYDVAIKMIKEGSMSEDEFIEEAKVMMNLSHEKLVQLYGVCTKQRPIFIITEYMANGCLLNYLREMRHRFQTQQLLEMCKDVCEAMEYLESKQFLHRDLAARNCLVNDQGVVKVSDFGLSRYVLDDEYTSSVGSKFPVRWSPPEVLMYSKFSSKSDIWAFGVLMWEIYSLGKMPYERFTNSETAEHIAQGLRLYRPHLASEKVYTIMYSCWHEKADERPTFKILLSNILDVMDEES

| DC50 (BTK) | Structure (SMILES) | IC50 (HEK-293 cells) | IC50 (HEK-293 cells; Homo sapiens, 72 h) |
| --- | --- | --- | --- |
| 4.69 nM | Cc1ccnc(NC(=O)c2ccc(-c3nn4c(c3C(N)=O)Nc3ccc(N5CCN(CC6CCN(c7ccc(N8CCC(=O)NC8=O)cc7)CC6)CC5)cc3CC4)cc2)c1 [Example B10, 7-(4-((1-(4-(2,4-dioxotetrahydropyrimidin-1(2H)-yl)phenyl)piperidin-4-yl)methyl)piperazin-1-yl)-2-(4-((4-methylpyridin-2-yl)carbamoyl)phenyl)-9,10-dihydro-4H-benzo[d]pyrazolo[1,5-a][1,3]diazepine-3-carboxamide] |  | > 10 µM |
| 0.387 nM | NC(=O)c1c(-c2ccc(C(=O)Nc3cc(C4CC4)ccn3)cc2)nn2c1Nc1ccc(N3CCN(CC4CCN(c5ccc(N6CCC(=O)NC6=O)cc5)CC4)CC3)cc1CC2 [Example B11, 2-(4-((4-cyclopropylpyridin-2-yl)carbamoyl)phenyl)-7-(4-((1-(4-(2,4-dioxotetrahydropyrimidin-1(2H)-yl)phenyl)piperidin-4-yl)methyl)piperazin-1-yl)-9,10-dihydro-4H-benzo[d]pyrazolo[1,5-a][1,3]diazepine-3-carboxamide] |  | > 10 µM |
| 5.82 nM | NC(=O)c1c(-c2ccc(C(=O)Nc3cc(C(F)(F)F)ccn3)cc2)nn2c1Nc1ccc(N3CCN(CC4CCN(c5ccc(N6CCC(=O)NC6=O)cc5)CC4)CC3)cc1CC2 [Example B12, 7-(4-((1-(4-(2,4-dioxotetrahydropyrimidin-1(2H)-yl)phenyl)piperidin-4-yl)methyl)piperazin-1-yl)-2-(4-((4-(trifluoromethyl)pyridin-2-yl)carbamoyl)phenyl)-9,10-dihydro-4H-benzo[d]pyrazolo[1,5-a][1,3]diazepine-3-carboxamide] |  | > 10 µM |
| 0.408 nM | NC(=O)c1c(-c2ccc(C(=O)Nc3nccc(C(F)(F)F)c3F)cc2)nn2c1Nc1ccc(N3CCN(CC4CCN(c5ccc(N6CCC(=O)NC6=O)cc5)CC4)CC3)cc1CC2 [Example B13, 7-(4-((1-(4-(2,4-dioxotetrahydropyrimidin-1(2H)-yl)phenyl)piperidin-4-yl)methyl)piperazin-1-yl)-2-(4-((3-fluoro-4-(trifluoromethyl)pyridin-2-yl)carbamoyl)phenyl)-9,10-dihydro-4H-benzo[d]pyrazolo[1,5-a][1,3]diazepine-3-carboxamide] |  | 0.179 µM |

Continued, compound first:

| Structure (SMILES) | DC50 (BTK) | IC50 (HEK-293 cells) | IC50 (HEK-293 cells; Homo sapiens, 72 h) |
| --- | --- | --- | --- |
| NC(=O)c1c(-c2ccc(C(=O)Nc3cc(C(F)(F)F)ccn3)cc2)nn2c1Nc1ccc(N3CCN(CC4CCN(c5ccc(N6CCC(=O)NC6=O)cc5)CC4)CC3)cc1CC2 [Example B1, 7-(4-((1-(4-(2,4-dioxotetrahydropyrimidin-1(2H)-yl)phenyl)piperidin-4-yl)methyl)piperazin-1-yl)-2-(4-((4-(trifluoromethyl)pyridin-2-yl)carbamoyl)phenyl)-9,10-dihydro-4H-benzo[d]pyrazolo[1,5-a][1,3]diazepine-3-carboxamide] | 0.561 nM | > 10 µM |  |
| NC(=O)c1c(-c2ccc(C(=O)Nc3cc(C(F)(F)F)ccn3)cc2F)nn2c1Nc1ccc(N3CCN(CC4CCN(c5ccc(N6CCC(=O)NC6=O)cc5)CC4)CC3)cc1CC2 [Example B2, 7-(4-((1-(4-(2,4-dioxotetrahydropyrimidin-1(2H)-yl)phenyl)piperidin-4-yl)methyl)piperazin-1-yl)-2-(2-fluoro-4-((4-(trifluoromethyl)pyridin-2-yl)carbamoyl)phenyl)-9,10-dihydro-4H-benzo[d]pyrazolo[1,5-a][1,3]diazepine-3-carboxamide] | 0.842 nM |  | > 10 µM |
| Cc1cc(N2CCC(CN3CCN(c4ccc5c(c4)CCn4nc(-c6ccc(C(=O)Nc7cc(C(F)(F)F)ccn7)cc6)c(C(N)=O)c4N5)CC3)CC2)ccc1N1CCC(=O)NC1=O [Example B3, 7-(4-((1-(4-(2,4-dioxotetrahydropyrimidin-1(2H)-yl)-3-methylphenyl)piperidin-4-yl)methyl)piperazin-1-yl)-2-(4-((4-(trifluoromethyl)pyridin-2-yl)carbamoyl)phenyl)-9,10-dihydro-4H-benzo[d]pyrazolo[1,5-a][1,3]diazepine-3-carboxamide] | 0.534 nM |  | 0.0888 µM |
| NC(=O)c1c(-c2ccc(C(=O)Nc3ccccn3)cc2)nn2c1Nc1ccc(N3CCN(CC4CCN(c5ccc(N6CCC(=O)NC6=O)cc5)CC4)CC3)cc1CC2 [Example B4, 7-(4-((1-(4-(2,4-dioxotetrahydropyrimidin-1(2H)-yl)phenyl)piperidin-4-yl)methyl)piperazin-1-yl)-2-(4-(pyridin-2-ylcarbamoyl)phenyl)-9,10-dihydro-4H-benzo[d]pyrazolo[1,5-a][1,3]diazepine-3-carboxamide] | 0.704 nM |  | > 10 µM |
| Cc1cc(-c2nn3c(c2C(N)=O)Nc2ccc(N4CCN(CC5CCN(c6ccc(N7CCC(=O)NC7=O)cc6)CC5)CC4)cc2CC3)ccc1C(=O)Nc1cc(C(F)(F)F)ccn1 [Example B5, 7-(4-((1-(4-(2,4-dioxotetrahydropyrimidin-1(2H)-yl)phenyl)piperidin-4-yl)methyl)piperazin-1-yl)-2-(3-methyl-4-((4-(trifluoromethyl)pyridin-2-yl)carbamoyl)phenyl)-9,10-dihydro-4H-benzo[d]pyrazolo[1,5-a][1,3]diazepine-3-carboxamide] | 1.46 nM |  | > 10 µM |
| Cc1cc(C(=O)Nc2cc(C(F)(F)F)ccn2)ccc1-c1nn2c(c1C(N)=O)Nc1ccc(N3CCN(CC4CCN(c5ccc(N6CCC(=O)NC6=O)cc5)CC4)CC3)cc1CC2 [Example B6, 7-(4-((1-(4-(2,4-dioxotetrahydropyrimidin-1(2H)-yl)phenyl)piperidin-4-yl)methyl)piperazin-1-yl)-2-(2-methyl-4-((4-(trifluoromethyl)pyridin-2-yl)carbamoyl)phenyl)-9,10-dihydro-4H-benzo[d]pyrazolo[1,5-a][1,3]diazepine-3-carboxamide] | 2.22 nM |  | > 10 µM |
| Cc1cc(-c2nn3c(c2C(N)=O)Nc2ccc(N4CCN(CC5CCN(c6ccc(N7CCC(=O)NC7=O)cc6)CC5)CC4)cc2CC3)cc(C)c1C(=O)Nc1cc(C(F)(F)F)ccn1 [Example B7, 2-(3,5-dimethyl-4-((4-(trifluoromethyl)pyridin-2-yl)carbamoyl)phenyl)-7-(4-((1-(4-(2,4-dioxotetrahydropyrimidin-1(2H)-yl)phenyl)piperidin-4-yl)methyl)piperazin-1-yl)-9,10-dihydro-4H-benzo[d]pyrazolo[1,5-a][1,3]diazepine-3-carboxamide] | 5.37 nM |  | > 10 µM |
| NC(=O)c1c(-c2ccc(C(=O)Nc3cc(C(F)(F)F)ccn3)c(F)c2)nn2c1Nc1ccc(N3CCN(CC4CCN(c5ccc(N6CCC(=O)NC6=O)cc5)CC4)CC3)cc1CC2 [Example B8, 7-(4-((1-(4-(2,4-dioxotetrahydropyrimidin-1(2H)-yl)phenyl)piperidin-4-yl)methyl)piperazin-1-yl)-2-(3-fluoro-4-((4-(trifluoromethyl)pyridin-2-yl)carbamoyl)phenyl)-9,10-dihydro-4H-benzo[d]pyrazolo[1,5-a][1,3]diazepine-3-carboxamide] | 1.82 nM |  | 0.301 µM |
| COc1ccnc(NC(=O)c2ccc(-c3nn4c(c3C(N)=O)Nc3ccc(N5CCN(CC6CCN(c7ccc(N8CCC(=O)NC8=O)cc7)CC6)CC5)cc3CC4)cc2)c1 [Example B9, 7-(4-((1-(4-(2,4-dioxotetrahydropyrimidin-1(2H)-yl)phenyl)piperidin-4-yl)methyl)piperazin-1-yl)-2-(4-((4-methoxypyridin-2-yl)carbamoyl)phenyl)-9,10-dihydro-4H-benzo[d]pyrazolo[1,5-a][1,3]diazepine-3-carboxamide] | 6.14 nM |  | > 10 µM |
